Laboratory results reported in PMC10374545, “A small molecule inhibitor of PTP1B and PTPN2 enhances T cell anti-tumor immunity” (Nature Communications, 2023).
Where “and” joins values, the source holds several entries; their conditions need not be identical. Equal values may be shown once.

Tests used:
AT3-OVA mammary tumors [1] = assay: Tumor-infiltrating lymphocytes in AT3-OVA tumors of Lck-Cre;Ptpn2fl/fl mice; type: in vivo, mouse; set-up: NK cells / Tregs / MDSCs / CD4 EM / CD8 EM / B cells / IFNg TNF / GRZMB: unit not given here
Procedure: Tumor-bearing mice were sacrificed and tumors were excised and digested at 37 °C for 30 min using a cocktail of 1 mg/ml collagenase type IV (Worthington Biochemicals) and 0.02 mg/ml DNase I (Sigma-Aldrich) in DMEM supplemented with 2% (v/v) FBS. Cells were passed through a 70 μm cell strainer (BD Biosciences) twice and processed for flow cytometry. For assessing T cell activation, cells were surface stained with fluorophore-conjugated antibodies to CD62L, CD44, PD-1, and TIM-3. For the assessment of NK cells, B cells, myeloid-derived suppressor cells (MDSCs), dendritic cells (DCs), and tumor-associated macrophages, cells were surface stained with fluorophore-conjugated antibodies to NK1.1, TCRβ, CD19, CD11b, CD11c, F4/80, Ly6C and Ly6G. For the detection of intracellular cytokines TNF and IFNγ, T cells were stimulated with PMA (20 ng/ml; Sigma-Aldrich) and ionomycin (1 μg/ml; Sigma-Aldrich) in the presence of GolgiPlug™ and GolgiStop™ (BD Biosciences) for 4 h at 37 °C in complete T cell medium. For the intracellular detection of granzyme B, cells were processed untreated without the addition of BD GolgiPlug™ and BD GolgiStop™.

AT3-OVA mammary tumors [2] = assay: AT3-OVA tumor growth in Lck-Cre;Ptpn2fl/fl mice; type: in vivo, mouse; set-up: key to Tumour growth: tumour size in mm^2 (two-dimensional caliper measurement); settings: for Tumour growth: AT3-OVA tumours, individual mice (Figure 7A)
Procedure: Male or female mice were injected subcutaneously with 5 × 10^5 MC38 tumor cells resuspended in 100 μl D-PBS into the flank. Alternatively, female mice were injected orthotopically with 5 × 10^5 AT3 or AT3-OVA or PTPN2-deleted AT3 or AT3-OVA tumor cells resuspended in 20 μl D-PBS into the fourth mammary fat pad. Tumor sizes were measured in two dimensions (mm^2) using electronic callipers two to three times per week as soon as tumors were palpable (20–25 mm^2).

PTPN2 = biological target: T1, PTPN2 (Homo sapiens, UniProt P17706); assay: Jump-dilution assay; type: biochemical; settings: 30 min preincubation, 50-fold dilution into 100 µM DiFMUP
T1 construct: PTPN2, residues 1-387; made in house; host or cells: E. coli BL21(DE3)
T1 sequence (P17706 1-387 isoform P17706-2): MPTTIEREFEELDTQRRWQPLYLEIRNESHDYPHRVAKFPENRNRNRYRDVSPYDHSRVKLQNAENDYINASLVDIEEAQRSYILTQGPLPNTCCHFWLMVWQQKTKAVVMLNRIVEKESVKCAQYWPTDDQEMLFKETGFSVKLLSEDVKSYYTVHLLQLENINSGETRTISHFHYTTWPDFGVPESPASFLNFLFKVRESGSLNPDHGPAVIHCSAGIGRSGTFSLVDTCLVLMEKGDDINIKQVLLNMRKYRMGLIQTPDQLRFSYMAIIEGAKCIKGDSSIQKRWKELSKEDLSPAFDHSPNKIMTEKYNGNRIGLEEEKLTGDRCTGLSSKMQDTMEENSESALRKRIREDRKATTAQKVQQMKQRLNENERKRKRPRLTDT
Procedure: (§1) The reaction was allowed to proceed for 10 min under room temperature and was quenched by addition of a 160 µM solution of bpV(Phen). The fluorescence signal was measured using a CLARIOstar Plus Microplate Spectrophotometer (BMG Labtech) using excitation and emission wavelengths of 340 nm and 450 nm, respectively. Data were fitted using Prism GraphPad 9.2.0.

PTP1B = biological target: T2, PTP1B (Homo sapiens, UniProt P18031); assay: Jump-dilution assay; type: biochemical; settings: 30 min preincubation, 50-fold dilution into 100 µM DiFMUP
T2 construct: PTP1B, residues 1-321; made in house; host or cells: E. coli BL21(DE3)
T2 sequence (P18031 1-321): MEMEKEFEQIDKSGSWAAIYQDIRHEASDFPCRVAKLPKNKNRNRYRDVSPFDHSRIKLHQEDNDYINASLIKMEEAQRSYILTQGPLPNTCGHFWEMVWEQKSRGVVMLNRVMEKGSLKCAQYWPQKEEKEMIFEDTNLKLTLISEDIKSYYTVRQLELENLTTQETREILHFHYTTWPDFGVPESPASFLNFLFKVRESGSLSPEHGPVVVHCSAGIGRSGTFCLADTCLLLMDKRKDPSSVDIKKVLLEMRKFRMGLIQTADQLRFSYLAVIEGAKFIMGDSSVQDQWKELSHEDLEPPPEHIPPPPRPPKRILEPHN
Procedure: as §1

[3] = tested on: STAT-1 target genes in AT3-OVA tumors; assay: qPCR of STAT-1 target genes in AT3-OVA tumors; type: in vivo, mouse; set-up: key: relative expression by comparative Ct (ΔΔCt), normalized to Rps18 or Gapdh; settings: tumour gene expression, Lck-Cre;Ptpn2flfl+CMP-182, individual mice (Figure 7F)
Procedure: For quantitative real-time PCR analysis, RNA from tumors was isolated using RNAzol (Sigma-Aldrich, St. Louis, MO), and RNA quality was assessed using a NanoDrop 2000 (Thermo Fisher Scientific, Waltham MA). mRNA was reverse-transcribed using the High-Capacity cDNA Reverse Transcription Kit (Applied Biosystems, Thermo Fisher Scientific, Waltham, MA) and processed for quantitative Real-Time PCR using the Fast SYBR Green Master Mix (Applied Biosystems, Thermo Fisher Scientific, Waltham MA) and PrimePCR™ SYBR Green Assays (Bio-Rad, Hercules, CA) for Cxcl9 (qMmuCID0023784), Cxcl10 (qMmuCED0049500), Tapbp (qMmuCEP0035035), Tap1 (qMmuCEP0057739), […], H2ab1 (qMmuCIP0029038), Cd274 (qMmuCED0044192), H2k1 (qMmuCEP0034842), Tnf (qMmuCED0004141) and Ifng (qMmuCID0006268). Relative gene expression was determined by normalization to the house-keeping gene Rps18 (qMmuCED0045430) or Gapdh (qMmuCED0027497). Gene quantification was performed with the comparative Ct (ΔΔCt) method.

[4] = Lck-Cre;Ptpn2fl/fl mice, individual mice (Figure 7D), listed as CMP-182
[5] = tumour-infiltrating cells, Lck-Cre;Ptpn2fl/fl mice n=6, individual mice (Figure 7C), listed as CMP-182

Question: Which results are given for `CC(C)(O)CCOc1ccc2cc(O)c(N3CC(=O)NS3(=O)=O)c(F)c2c1` [Compound 182, 5-(1-Fluoro-3-hydroxy-7-(3-hydroxy-3-methylbutoxy)naphthalen-2-yl)−1,2,5-thiadiazolidin-3-one 1,1-dioxide]?
Answer: IFNγ+TNF+ infiltrating CD8+ T cells in Lck-Cre;Ptpn2fl/fl mice (AT3-OVA mammary tumors [1]; 10 mg/kg i.v.): significantly increased; GRZMB (AT3-OVA mammary tumors [1]; [4]): 75.7 and 29.8 and 80.2 and 60 and 76.3 and 38.3; IFNg TNF (AT3-OVA mammary tumors [1]; [4]): 26.1 and 36.3 and 38 and 37.5 and 35.3 and 36.7; TILs in AT3-OVA tumors of Lck-Cre;Ptpn2fl/fl mice (AT3-OVA mammary tumors [1]; compared with untreated Lck-Cre;Ptpn2fl/fl mice): not accompanied by any significant changes; B cells (AT3-OVA mammary tumors [1]; [5]): 170392 and 46995.6 and 105275 and 126695 and 155871 and 80840.6; CD4 EM (AT3-OVA mammary tumors [1]; [5]): 52213.7 and 43853.2 and 131869 and 64047.3 and 133510 and 49758.5; CD8 EM (AT3-OVA mammary tumors [1]; [5]): 137803 and 79204.9 and 701666 and 167038 and 463610 and 106200; MDSCs (AT3-OVA mammary tumors [1]; [5]): 220000 and 235417 and 32287.6 and 56721.3 and 90563.2 and 25765.3; NK cells (AT3-OVA mammary tumors [1]; [5]): 58097.7 and 15907.7 and 22173.4 and 86915 and 66469.7 and 20906.1; Tregs (AT3-OVA mammary tumors [1]; [5]): 31347.8 and 26539.2 and 15097.8 and 25883.4 and 26206.9 and 21641.1; growth of AT3-OVA tumors in Lck-Cre;Ptpn2fl/fl mice (AT3-OVA mammary tumors [2]; 10 mg/kg i.v., effects modest): additionally repressed the growth; Tumour growth (AT3-OVA mammary tumors [2]; Lck-Cre;Ptpn2fl/fl mice n=6, day 7 post injection, listed as CMP-182): 39.6 and 38.4 and 28.91 and 24.91 and 14.4 and 25; Tumour growth (AT3-OVA mammary tumors [2]; Lck-Cre;Ptpn2fl/fl mice n=6, day 9 post injection, listed as CMP-182): 40.2 and 33 and 27.36 and 24.44 and 20.64 and 28.6; Tumour growth (AT3-OVA mammary tumors [2]; Lck-Cre;Ptpn2fl/fl mice n=6, day 11 post injection, listed as CMP-182): 40.8 and 26.46 and 22.5 and 19.89 and 25.38 and 17.64; Tumour growth (AT3-OVA mammary tumors [2]; Lck-Cre;Ptpn2fl/fl mice n=6, day 13 post injection, listed as CMP-182): 44.8 and 30.25 and 16 and 20.25 and 29.64 and 25.38; Tumour growth (AT3-OVA mammary tumors [2]; Lck-Cre;Ptpn2fl/fl mice n=6, day 16 post injection, listed as CMP-182): 44.16 and 40.92 and 16 and 18.9 and 20.68 and 31.11; Tumour growth (AT3-OVA mammary tumors [2]; Lck-Cre;Ptpn2fl/fl mice n=6, day 19 post injection, listed as CMP-182): 38.94 and 25 and 15.2 and 25.92 and 33.48 and 38.34; Tumour growth (AT3-OVA mammary tumors [2]; Lck-Cre;Ptpn2fl/fl mice n=6, day 22 post injection, listed as CMP-182): 38.94 and 28.08 and 25.08 and 22.36 and 21 and 35; Tumour weights (AT3-OVA mammary tumors [2]; Lck-Cre;Ptpn2fl/fl mice n=6, individual mice (Figure 7B), listed as CMP-182, in mg (unit assumed)): 123 and 76 and 120 and 82 and 67 and 156; reversibility of inhibition (PTPN2): reversible; reversibility of inhibition (PTP1B): reversible; H2-Ab1 [3]: 1.37 and 2.449 and 1.819 and 1.855 and 0.6743 and 0.4848; IFNg [3]: 2.663 and 2.871 and 3.337 and 2.746 and 0.6434 and 0.3583; cd274 [3]: 1.409 and 1.249 and 1.434 and 1.371 and 1.147 and 0.5391; cxcl9 [3]: 1.651 and 1.828 and 1.511 and 1.806 and 0.4356 and 0.3111; cxcl10 [3]: 1.078 and 1.3193 and 1.359 and 1.098 and 0.6504 and 0.3928
